Assay results reported in ChEMBL document CHEMBL1140823, “Pyrazolopyridines with potent activity against herpesviruses: effects of C5 substituents on antiviral activity” (Bioorg Med Chem Lett, 2008).

Key:
[1] = Cytotoxicity against african green monkey Vero cells; format: cell-based; conditions: chlorocebus sabaeus
Human alphaherpesvirus 1 = test: Antiviral activity against HSV1 SC16 in african green monkey Vero cells; format: functional, organism-based; conditions: Human alphaherpesvirus 1, SC16, Vero

SMILES | CC50 [1] [nM] | IC50 (Human alphaherpesvirus 1) [nM]
CC(C)Nc1cc(Cl)cc2c(-c3ccnc(NC4CCCC4)n3)c(-c3ccc(F)cc3)nn12 | > 40000 | 1500
CC(C)Nc1cc(NC(C)C)n2nc(-c3ccc(F)cc3)c(-c3ccnc(NC4CCCC4)n3)c2c1 | > 40000 | 550
COc1ccn2nc(-c3ccc(F)cc3)c(-c3ccnc(NC4CCCC4)n3)c2c1 | > 36000 | > 36000
Fc1ccc(-c2nn3ccc(N4CCCC4)cc3c2-c2ccnc(NC3CCCC3)n2)cc1 | > 40000 | 1350
Fc1ccc(-c2nn3ccc(Cl)cc3c2-c2ccnc(NC3CCCC3)n2)cc1 | > 40000 | > 5000
c1cc(NC2CCCC2)n2nc(-c3ccc(OCC4CC4)cc3)c(-c3ccnc(NC4CCCC4)n3)c2c1 | > 40000 | 170
COc1ccc(-c2nn3c(NC4CC4)cc(Cl)cc3c2-c2ccnc(NC3CCCC3)n2)cc1 | > 40000 | 340
COCCNc1ccn2nc(-c3ccc(F)cc3)c(-c3ccnc(NC4CCCC4)n3)c2c1 | > 40000 | 830
COc1ccc(-c2nn3ccc(NC4CCCC4)cc3c2-c2ccnc(NC3CCCC3)n2)cc1 | 12300 | 210
Fc1ccc(-c2nn3c(NC4CCCC4)cc(OCC4CC4)cc3c2-c2ccnc(NC3CCCC3)n2)cc1 | > 40000 | 170
Fc1ccc(-c2nn3ccc(N4CCOCC4)cc3c2-c2ccnc(NC3CCCC3)n2)cc1 | 34000 | 3630
CC(C)Sc1cc(NC2CCCC2)cc2c(-c3ccnc(NC4CCCC4)n3)c(-c3ccc(F)cc3)nn12 | > 40000 | 370
CCSc1cc(NC2CCCC2)cc2c(-c3ccnc(NC4CCCC4)n3)c(-c3ccc(OC)cc3)nn12 | > 40000 | 40
c1cc(-c2c(-c3ccc(OCC4CC4)cc3)nn3ccc(NC4CCCC4)cc23)nc(NC2CCCC2)n1 | > 40000 | 330
Fc1ccc(-c2nn3c(NC4CC4)cc(Cl)cc3c2-c2ccnc(NC3CCCC3)n2)cc1 | > 40000 | 330
Nc1ccn2nc(-c3ccc(F)cc3)c(-c3ccnc(NC4CCCC4)n3)c2c1 | 20000 | 5070
COc1ccc(-c2nn3ccc(Cl)cc3c2-c2ccnc(NC3CCCC3)n2)cc1 | > 40000 | 4270
COc1ccc(-c2nn3c(NC4CCCC4)cccc3c2-c2ccnc(NC3CCCC3)n2)cc1 | > 100000 | 220
Fc1ccc(-c2nn3c(N4CCCCC4)cc(Cl)cc3c2-c2ccnc(NC3CCCC3)n2)cc1 | > 40000 | 150
Fc1ccc(-c2nn3c(NC4CCCC4)cc(Cl)cc3c2-c2ccnc(NC3CCCC3)n2)cc1 | > 40000 | 330
COc1cc(NC2CCCC2)n2nc(-c3ccc(F)cc3)c(-c3ccnc(NC4CCCC4)n3)c2c1 | > 40000 | 130
COCCOc1cc(NC2CCCC2)n2nc(-c3ccc(F)cc3)c(-c3ccnc(NC4CCCC4)n3)c2c1 | > 40000 | 320

SMILES | CC50 [1] [nM] | IC50 (Human alphaherpesvirus 1) [nM]
Fc1ccc(-c2nn3ccc(NC4CCCC4)cc3c2-c2ccnc(NC3CCCC3)n2)cc1 | 18000 | 530
CCOc1cc(NC2CCCC2)cc2c(-c3ccnc(NC4CCCC4)n3)c(-c3ccc(F)cc3)nn12 | 20600 | 160
CSc1cc(NC2CCCC2)cc2c(-c3ccnc(NC4CCCC4)n3)c(-c3ccc(F)cc3)nn12 | > 40000 | 170
Fc1ccc(-c2nn3c(Cl)cc(Cl)cc3c2-c2ccnc(NC3CCCC3)n2)cc1 | > 40000 | 7000
CC(C)Oc1cc(NC2CCCC2)n2nc(-c3ccc(F)cc3)c(-c3ccnc(NC4CCCC4)n3)c2c1 | > 40000 | 70
Fc1ccc(-c2nn3c(N4CCOCC4)cc(Cl)cc3c2-c2ccnc(NC3CCCC3)n2)cc1 | > 40000 | 180
COc1ccc(-c2nn3c(Cl)cc(Cl)cc3c2-c2ccnc(NC3CCCC3)n2)cc1 | > 40000 | 5300
COc1ccc(-c2nn3c(NC4CCCC4)cc(Cl)cc3c2-c2ccnc(NC3CCCC3)n2)cc1 | > 40000 | 220
Fc1ccc(-c2nn3c(Cl)cc(NC4CCCC4)cc3c2-c2ccnc(NC3CCCC3)n2)cc1 | > 40000 | 1360
CCSc1cc(NC2CCCC2)cc2c(-c3ccnc(NC4CCCC4)n3)c(-c3ccc(F)cc3)nn12 | > 40000 | 70
CC(C)Nc1ccn2nc(-c3ccc(F)cc3)c(-c3ccnc(NC4CCCC4)n3)c2c1 | > 40000 | 2730
COc1ccc(-c2nn3c(Sc4ccccc4)cc(NC4CCCC4)cc3c2-c2ccnc(NC3CCCC3)n2)cc1 | > 40000 | 1800
COc1ccc(-c2nn3c(SC(C)C)cc(NC4CCCC4)cc3c2-c2ccnc(NC3CCCC3)n2)cc1 | > 40000 | 210
COc1ccc(-c2nn3c(SC)cc(NC4CCCC4)cc3c2-c2ccnc(NC3CCCC3)n2)cc1 | > 40000 | 220
Nc1nc2c(ncn2COCCO)c(=O)[nH]1 [ACYCLOVIR] | > 200000 | 390
COc1ccc(-c2nn3ccc(NC(C)C)cc3c2-c2ccnc(NC3CCCC3)n2)cc1 | > 40000 | 920
CC(C)COc1ccc(-c2nn3ccc(NC4CCCC4)cc3c2-c2ccnc(NC3CCCC3)n2)cc1 | 27000 | 560
Fc1ccc(-c2nn3c(NC4CCCC4)cccc3c2-c2ccnc(NC3CCCC3)n2)cc1 | > 160000 | 260
CN(C)c1cc(Cl)cc2c(-c3ccnc(NC4CCCC4)n3)c(-c3ccc(F)cc3)nn12 | > 40000 | 380
COCCOc1cc(NC2CCCC2)cc2c(-c3ccnc(NC4CCCC4)n3)c(-c3ccc(F)cc3)nn12 | 32500 | 80
Fc1ccc(-c2nn3c(NC4CCCC4)cc(NC4CCCC4)cc3c2-c2ccnc(NC3CCCC3)n2)cc1 | > 40000 | 240
